The source of these data is patent US12091409B2, “Ether linked triazoles as NRF2 activators” (ASTEX THERAPEUTICS LIMITED, priority 2016, dated 2024).

The structures appear in SMILES notation. Where a name gives a salt, the structure may show the parent alone.

The test system of this assay is NQO1 specific enzyme activity in BEAS-2B cells (marker for NRF2 activation). The experiment in a line: BEAS-2B NQO1 MTT Assay. Type of assay: cell-based. Conditions: Homo sapiens, BEAS-2B, 48 h, NQO1 specific activity induction, 48 hours with compound. The text has this:
NAD(P)H:quinone oxidoreductase 1 (NQO1), also called DT diaphorase, is a homodimeric FAD-containing enzyme that catalyzes obligatory NAD(P)H-dependent two-electron reductions of quinones and protects cells against the toxic and neoplastic effects of free radicals and reactive oxygen species arising from one-electron reductions. The transcription of NQO1 is finely regulated by NRF2, and thus NQO1 activity is a good marker for NRF2 activation. On day one, frozen BEAS-2B cells (ATCC) were thawed in a water bath, counted, and re-suspended at a concentration of 250,000 cells/mL. Fifty microliters of cells were plated in 384 well black clear-bottomed plates. Plates were incubated at 37° C., 5% CO2 overnight. On day two, plates were centrifuged and 50 nL of compound or controls were added to the cells. Plates were then incubated at 37° C., 5% CO2 for 48 hours. On day four, medium was aspirated from the plate and crude cell lysates were made by adding 13 uL of 1× Cell Signaling Technologies lysis buffer with 1 Complete, Mini, EDTA-free Protease Inhibitor Tablet (Roche) for each 10 mL of lysis buffer. After lysis plates were incubated for 20 minutes at room temperature. Two microliters of lysate were removed for use in Cell Titer Glo assay (Promega) and MTT cocktail was prepared (Prochaska et. al. 1998) for measurement of NQO1 activity. Fifty microliters of MTT cocktail was added to each well, plate was centrifuged, and analyzed on an Envision plate reader (Perkin Elmer) using Absorbance 570 nm label for 30 minutes. Product formation was measured kinetically and the pEC50 of NQO1 specific activity induction was calculated by plotting the change in absorbance (Delta OD/min) versus the log of compound concentration followed by 3-parameter fitting.
pEC50 is the negative log of the EC50.
EC50s<1 nM (+++++), EC50s 1 nM-10 nM (++++), EC50s 10 nM-100 nM (+++), EC50s 100 nM-1 uM (++), EC50s 1 uM-10 uM (+); EC50s>10 uM (−), or were not determined (ND).
As usually defined, the EC50 is the concentration at which the effect is half-maximal. `CCCn1cc(COC(c2ccc(C)c(CN3C[C@@H](CC)Oc4ccccc4S3(=O)=O)c2)C(C)(C)C(=O)O)nn1` (stereo partly drawn) [Example 4, 3-(3-(((R)-4-ethyl-1,1-dioxido-3,4-dihydro-2H-benzo[b][1,4,5]oxathiazepin-2-yl)methyl)-4-methylphenyl)-2,2-dimethyl-3-((1-propyl-1H-1,2,3-triazol-4-yl)methoxy)propanoic acid]: the EC50 was less than 1 nM.
As for `CC[C@@H]1CN(Cc2cc(C(OCc3cn(Cc4cccc(-c5ccc(C(=O)O)cc5)c4)nn3)C(C)(C)C(=O)O)ccc2C)S(=O)(=O)c2ccccc2O1` (stereo partly drawn) [Example 22, 3′-((4-((2-Carboxy-1-(3-(((R)-4-ethyl-1,1-dioxido-3,4-dihydro-2H-benzo[b][1,4,5]oxathiazepin-2-yl)methyl)-4-methylphenyl)-2-methylpropoxy)methyl)-1H-1,2,3-triazol-1-yl)methyl)-[1,1′-biphenyl]-4-carboxylic acid], the EC50 was 1 to 10 nM.
With `CCCn1cc(CO[C@H](c2ccc(C)c(CN3C[C@@H](C)Cc4ccccc4S3(=O)=O)c2)C(C)(C)C(=O)O)nn1` [Example 88, (R)-2,2-dimethyl-3-(4-methyl-3-(((S)-4-methyl-1,1-dioxido-4,5-dihydrobenzo[f][1,2]thiazepin-2(3H)-yl)methyl)phenyl)-3-((1-propyl-1H-1,2,3-triazol-4-yl)methoxy)propanoic acid], the EC50 is less than 1 nM.
As for `Cc1ccc(C(OCc2cn(Cc3cccc(Cn4cc(CCO)nn4)c3)nn2)C(C)(C)C(=O)O)cc1CN1C[C@@H](C)Oc2ccccc2S1(=O)=O` (stereo partly drawn) [Example 40, 3-((1-(3-((4-(2-Hydroxyethyl)-1H-1,2,3-triazol-1-yl)methyl)benzyl)-1H-1,2,3-triazol-4-yl)methoxy)-2,2-dimethyl-3-(4-methyl-3-(((R)-4-methyl-1,1-dioxido-3,4-dihydro-2H-benzo[b][1,4,5]oxathiazepin-2-yl)methyl)phenyl)propanoic acid], the 50% effective concentration (EC50) was 100 to 1000 nM.
For the molecule `Cc1ccc(C(OCc2cn(C3CCCCC3)nn2)C(C)(C)C(=O)O)cc1CN1C[C@@H](C)Oc2ccccc2S1(=O)=O` (stereo partly drawn) [Example 17, 3-((1-Cyclohexyl-1H-1,2,3-triazol-4-yl)methoxy)-2,2-dimethyl-3-(4-methyl-3-(((R)-4-methyl-1,1-dioxido-3,4-dihydro-2H-benzo[b][1,4,5]oxathiazepin-2-yl)methyl)phenyl)propanoic acid], the EC50 was 1 to 10 nM.
For `CCn1cc(CO[C@@H](c2ccc(C)c(CN3C[C@@H](C)Cc4ncccc4S3(=O)=O)c2)C(C)(C)C(=O)O)nn1` [Example 72, (3S)-((1-ethyl-1H-1,2,3-triazol-4-yl)methoxy)-2,2-dimethyl-3-(4-methyl-3-(((S)-4-methyl-1,1-dioxido-4,5-dihydropyrido[2,3-f][1,2]thiazepin-2(3H)-yl)methyl)phenyl)propanoic acid], the EC50 lay within 10 to 100 nM.
In the case of `CC[C@@H]1CN(Cc2cc(C(OCc3cn(Cc4cccc(Cn5cc(CO)nn5)c4)nn3)C(C)(C)C(=O)O)ccc2C)S(=O)(=O)c2ccccc2O1` (stereo partly drawn) [Example 28, 3-(3-(((R)-4-ethyl-1,1-dioxido-3,4-dihydro-2H-benzo[b][1,4,5]oxathiazepin-2-yl)methyl)-4-methylphenyl)-3-((1-(3-((4-(hydroxymethyl)-1H-1,2,3-triazol-1-yl)methyl)benzyl)-1H-1,2,3-triazol-4-yl)methoxy)-2,2-dimethyl-propanoic acid], the EC50 was in the range of 10 to 100 nM.
As for `CCn1cc(CO[C@H](c2ccc(C)c(CN3C[C@H](C)Cc4ccncc4S3(=O)=O)c2)C(C)(C)C(=O)O)nn1` [Example 66, (3R)-((1-ethyl-1H-1,2,3-triazol-4-yl)methoxy)-2,2-dimethyl-3-(4-methyl-3-(((R)-4-methyl-1,1-dioxido-4,5-dihydropyrido[4,3-f][1,2]thiazepin-2(3H)-yl)methyl)phenyl)propanoic acid], the 50% effective concentration (EC50) is 100 to 1000 nM.
Turning to `Cc1ccc(C(OCc2cn(Cc3ccc(Cn4cc(COC(c5ccc(C)c(CN6C[C@@H](C)Oc7ccccc7S6(=O)=O)c5)C(C)(C)C(=O)O)nn4)cc3)nn2)C(C)(C)C(=O)O)cc1CN1C[C@@H](C)Oc2ccccc2S1(=O)=O` (stereo partly drawn) [Example 48, (R)-3,3′-(((1,1′-(1,4-phenylenebis(methylene))bis(1H-1,2,3-triazole-4,1-diyl))bis(methylene))bis(oxy))bis(2,2-dimethyl-3-(4-methyl-3-(((R)-4-methyl-1,1-dioxido-3,4-dihydro-2H-benzo[b][1,4,5]oxathiazepin-2-yl)methyl)phenyl)propanoic acid)], the EC50 is 10 to 100 nM.
`CCn1cc(CO[C@@H](c2ccc(C)c(CN3C[C@@H](C)Cc4ccccc4S3(=O)=O)c2)C(C)(C)C(=O)O)nn1` [Example 75, (3S)-((1-ethyl-1H-1,2,3-triazol-4-yl)methoxy)-2,2-dimethyl-3-(4-methyl-3-(((S)-4-methyl-1,1-dioxido-4,5-dihydrobenzo[f][1,2]thiazepin-2(3H)-yl)methyl)phenyl)propanoic acid]: the EC50 was 1 to 10 nM.
Turning to `CC[C@@H]1CN(Cc2cc([C@H](OCc3cn(C4COC4)nn3)C(C)(C)C(=O)O)ccc2C)S(=O)(=O)c2ccccc2O1` [Example 105], the EC50 fell in the range of 1 to 10 nM.
Regarding `CC[C@@H]1CN(Cc2cc([C@H](OCc3cn(CC)nn3)C(C)(C)C(=O)O)ccc2C)Cc2ccccc2O1` [Example 118], the concentration giving a half-maximal response (EC50) fell in the range of 1000 to 10000 nM.
In the case of `Cc1ccc(C(OCc2cn(CC3CCN(C(=O)C4CCCCC4)CC3)nn2)C(C)(C)C(=O)O)cc1CN1C[C@@H](C)Oc2ccccc2S1(=O)=O` (stereo partly drawn) [Example 30, 3-((1-((1-(Cyclohexanecarbonyl)piperidin-4-yl)methyl)-1H-1,2,3-triazol-4-yl)methoxy)-2,2-dimethyl-3-(4-methyl-3-(((R)-4-methyl-1,1-dioxido-3,4-dihydro-2H-benzo[b][1,4,5]oxathiazepin-2-yl)methyl)phenyl)propanoic acid], the EC50 fell in the range of 1 to 10 nM.
Consider `Cc1ccc(C(OCc2c[nH]nn2)C(C)(C)C(=O)O)cc1CN1C[C@@H](C)Oc2ccccc2S1(=O)=O` (stereo partly drawn) [Example 101, 3-((1H-1,2,3-triazol-4-yl)methoxy)-2,2-dimethyl-3-(4-methyl-3-(((R)-4-methyl-1,1-dioxido-3,4-dihydro-2H-benzo[b][1,4,5]oxathiazepin-2-yl)methyl)phenyl)propanoic acid], for which the EC50 fell in the range of 10 to 100 nM.
For `COCCn1cc(CO[C@H](c2ccc(C)c(CN(Cc3ccccc3)S(=O)(=O)c3cccc(C(=O)O)c3)c2)C(C)(C)C(=O)O)nn1` [Example 94, (R)-3-(N-benzyl-N-(5-(2-carboxy-1-((1-(2-methoxyethyl)-1H-1,2,3-triazol-4-yl)methoxy)-2-methylpropyl)-2-methylbenzyl)sulfamoyl)benzoic acid] the value was 100 to 1000 nM.
With `Cc1ccc(C(OCc2cn(CCOCCN=[N+]=[N-])nn2)C(C)(C)C(=O)O)cc1CN1C[C@@H](C)Oc2ccccc2S1(=O)=O` (single isomer, unassigned) [Example 14], the 50% effective concentration (EC50) is 1 to 10 nM.
Regarding `CCCn1cc(CO[C@H](c2ccc(C)c(CN(Cc3cccc(C(=O)O)c3)S(=O)(=O)c3cccc(C(=O)O)c3)c2)C(C)(C)C(=O)O)nn1` [Example 92, (R)-3-(N-(5-(2-carboxy-2-methyl-1-((1-propyl-1H-1,2,3-triazol-4-yl)methoxy)propyl)-2-methylbenzyl)-N-(3-carboxybenzyl)sulfamoyl)benzoic acid], the EC50 lay in the range of 1000 to 10000 nM.
As for `Cc1ccc([C@@H](OCc2cn(C)nn2)C(C)(C)C(=O)O)cc1CN1Cc2ncccc2O[C@H](C(C)C)C1` [Example 109, (R)-3-(3-(((R)-2-isopropyl-2,3-dihydropyrido[2,3-b][1,4]-oxazepin-4(5H)-yl)methyl)-4-methylphenyl)-2,2-dimethyl-3-((1-methyl-1H-1,2,3-triazol-4-yl)methoxy)propanoic acid], the 50% effective concentration (EC50) was 10 to 100 nM.
On to `CC[C@@H]1CN(Cc2cc([C@H](OCc3cn(CCOCCOC)nn3)C(C)(C)C(=O)O)ccc2C)S(=O)(=O)c2ccccc2O1` [Example 107, 3-(3-(((R)-4-ethyl-1,1-dioxido-3,4-dihydro-2H-benzo[b][1,4,5]oxathiazepin-2-yl)methyl)-4-methylphenyl)-3-((1-(2-(2-methoxyethoxy)ethyl)-1H-1,2,3-triazol-4-yl)methoxy)-2,2-dimethylpropanoic acid], for which the EC50 is less than 1 nM.
Regarding `CC[C@H]1Cc2cccnc2CN(Cc2cc([C@H](OCc3cn(CC)nn3)C(C)(C)C(=O)O)ccc2C)C1` [Example 116, (S)-methyl 3-((1-ethyl-1H-1,2,3-triazol-4-yl)-methoxy)-3-(3-(((S)-6-ethyl-6,7-dihydro-5H-pyrido[2,3-c]azepin-8(9H)-yl)methyl)-4-methylphenyl)-2,2-dimethyl-propanoic acid, trifluoroacetate], the EC50 lay within 10 to 100 nM.
